Reference: BindingDB's records for doi:10.1016/j.ejmech.2019.111574 (Chungnam National University, 2019)

Assay: Inhibition of IL-5 receptor in mouse pro-B Y16 cells assessed as decrease in mIL-5 dependent cell proliferation after 48 hrs in presence of 3 units/ml mIL-5 by WST-1 assay

| SMILES | IC50 [µM] |
| --- | --- |
| COc1ccc(NCc2nc3c(OCC4CCCCC4)cccc3[nH]2)cc1 | > 30 |
| OCCN(Cc1ccncc1)Cc1nc2c(OCC3CCCCC3)cccc2[nH]1 | > 30 |
| OCCN(Cc1nc2c(OCC3CCCCC3)cccc2[nH]1)C1CCCCC1 | > 30 |
| OCCCCNCc1nc2c(OCC3CCCCC3)cccc2[nH]1 | 30 |
| c1ccc(NCc2nc3c(OCC4CCCCC4)cccc3[nH]2)cc1 | > 30 |
| OCCCCCNCc1nc2c(OCC3CCCCC3)cccc2[nH]1 | > 30 |
| CC(C)(CO)NCc1nc2c(OCC3CCCCC3)cccc2[nH]1 | 27.5 |
| CC(C)N(CCO)Cc1nc2c(OCC3CCCCC3)cccc2[nH]1 | > 30 |
| c1ccc(CNCc2nc3c(OCC4CCCCC4)cccc3[nH]2)cc1 | > 30 |
| OCCCNCc1nc2c(OCC3CCCCC3)cccc2[nH]1 | 28.5 |
| CCN(CCO)Cc1nc2c(OCC3CCCCC3)cccc2[nH]1 | > 30 |
| CN(CCO)Cc1nc2c(OCC3CCCCC3)cccc2[nH]1 | > 30 |
| COc1ccc(CNCc2nc3c(OCC4CCCCC4)cccc3[nH]2)cc1 | > 30 |

Now those with a lower IC50, led by results:

| IC50 [µM] | SMILES |
| --- | --- |
| 20 | OCC(NCc1nc2c(OCC3CCCCC3)cccc2[nH]1)c1ccccc1 (configuration not stated) |
| 22 | OCCC(NCc1nc2c(OCC3CCCCC3)cccc2[nH]1)c1ccccc1 (configuration not stated) |
| 10.6 | O=c1c(-c2ccc(O[C@@H]3O[C@H](CO)[C@@H](O)[C@H](O)[C@H]3O)cc2)coc2cc(O)cc(O)c12 [Sophoricoside] |
| 25 | OCCN(Cc1ccccc1)Cc1nc2c(OCC3CCCCC3)cccc2[nH]1 |
| 3.5 | CCC(CO)NCc1nc2c(OCC3CCCCC3)cccc2[nH]1 (configuration not stated) |
| 19 | COc1ccc(CN(CCO)Cc2nc3c(OCC4CCCCC4)cccc3[nH]2)cc1 |
| 12 | OCC(Cc1ccccc1)NCc1nc2c(OCC3CCCCC3)cccc2[nH]1 (configuration not stated) |
| 21 | OCCN(Cc1nc2c(OCC3CCCCC3)cccc2[nH]1)CC1CCCCC1 |
| 26.2 | CCCC1O[C@@H]2C[C@H]3[C@@H]4CCC5=CC(=O)C=C[C@]5(C)[C@H]4[C@@H](O)C[C@]3(C)[C@]2(C(=O)CO)O1 (some centres not stated) [BUDESONIDE] |
| 20 | OCCNCc1nc2c(OCC3CCCCC3)cccc2[nH]1 |
| 13 | OCCN(Cc1ccc(Cl)cc1)Cc1nc2c(OCC3CCCCC3)cccc2[nH]1 |
| 20 | CCCN(CCO)Cc1nc2c(OCC3CCCCC3)cccc2[nH]1 |
| 5 | OCC(CC1CCCCC1)NCc1nc2c(OCC3CCCCC3)cccc2[nH]1 (configuration not stated) |
| 7.5 | CCCC(CO)NCc1nc2c(OCC3CCCCC3)cccc2[nH]1 (configuration not stated) |
